According to publication PMC13516207 (Pharmaceuticals, 2026):
Bridge positions count the residues as written; N and C are the ends. Square brackets hold non-standard residues; d marks the D form. Side chains are listed from the residue outwards. Peptide text beside a SMILES is read from it. * marks the point of attachment. NOTA = O=C(O)CN1CCN(CC(=O)O)CCN(CC(=O)*)CC1; 2Nal = N[C@@H](Cc1ccc2ccccc2c1)C(=O)O; Lys(iPr) = CC(C)NCCCC[C@H](N)C(=O)O

Target: human CXCR4 (Homo sapiens, UniProt P61073)
Assay: CXCL12-AF647 competition binding on Jurkat cells, flow cytometry
Conditions: competition with CXCL12-AF647, mean ± SD
Experimental: Subsequently, 50 µL containing 0.25 × 10^6 Jurkat cells was added to each well, followed by 50 µL human CXCL12-AF647 (100 ng/mL; Almac, Craigavon, UK). Plates were incubated for 30 min at room temperature in the dark. After incubation, the cells were washed twice by centrifugation (400× g, 5 min) to replace the supernatant and subsequently fixed with 1% paraformaldehyde (Merck, Darmstadt, Germany). Fluorescence intensity was quantified by flow cytometry, and IC50 values were obtained by nonlinear regression analysis. All measurements were performed with at least four technical replicates.

Sequence of human CXCR4 (P61073 whole entry): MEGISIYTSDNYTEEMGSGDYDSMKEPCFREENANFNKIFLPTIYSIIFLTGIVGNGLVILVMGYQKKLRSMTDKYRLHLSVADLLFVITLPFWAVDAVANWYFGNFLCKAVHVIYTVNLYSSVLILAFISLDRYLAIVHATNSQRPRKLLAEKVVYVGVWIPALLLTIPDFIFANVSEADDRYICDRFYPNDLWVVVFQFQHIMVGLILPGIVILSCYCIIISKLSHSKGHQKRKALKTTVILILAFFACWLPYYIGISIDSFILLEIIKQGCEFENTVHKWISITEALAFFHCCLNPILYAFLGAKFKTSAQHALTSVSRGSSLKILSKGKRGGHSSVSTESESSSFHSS

CC(C)NCCCC[C@H](NC(=O)[C@H]1CCC(=O)N[C@@H](Cc2ccccc2)C(=O)N[C@@H](Cc2ccc(O)cc2)C(=O)N[C@@H](CCCCNC(C)C)C(=O)N[C@H](CCCNC(=N)N)C(=O)N[C@@H](Cc2ccc3ccccc3c2)C(=O)NCC(=O)N1)C(N)=O [LY2510924, cyclo[Phe-Tyr-Lys(iPr)-D-Arg-2-Nal-Gly-D-Glu]-Lys(iPr)-NH2] (FY[Lys(iPr)][dR][2Nal]G[dE][Lys(iPr)]-NH2; lactam N-7)
IC50: 0.36 ± 0.07 nM

CC(C)NCCCC[C@@H]1NC(=O)[C@H](Cc2ccc(O)cc2)NC(=O)[C@H](Cc2ccccc2)NC(=O)CC[C@H](C(=O)N[C@@H](CCCCNC(C)C)C(=O)N[C@@H](CCCCNC(=O)[C@H](CCC(=O)O)NC(=O)[C@H](CCC(=O)O)NC(=O)[C@H](CCC(=O)O)NC(=O)CN2CCN(CC(=O)O)CCN(CC(=O)O)CC2)C(N)=O)NC(=O)CNC(=O)[C@H](Cc2ccc3ccccc3c2)NC(=O)[C@@H](CCCNC(=N)N)NC1=O [[^natF]AlF-NOTA-SC] (FY[Lys(iPr)][dR][2Nal]G[dE][Lys(iPr)]K([Glu-Glu-Glu-NOTA])-NH2; lactam N-7)
IC50: 14.4 ± 2.65 nM
